# From paper PMC7801736 (ACS infectious diseases, 2019)
# Where two headings read alike, the source gives them in different places.
# Legend:
# [1] = test system: M. tuberculosis strain fgd1::tn; test: microbe, parasite or virus in culture; type: cell-based; conditions: for MIC: Mycobacterium tuberculosis, read-out: MIC (µM) fgd1::tn; for MIC shift, fgd1::tn strain: fgd1::tn vs H37Rv
# [2] = test system: M. tuberculosis strain ddn::tn; test: microbe, parasite or virus in culture; type: cell-based; conditions: Mycobacterium tuberculosis, read-out: MIC (µM) ddn::tn
# in vitro = type: cell-based; conditions: African green monkey
# [3] = biological target: purified M. tuberculosis InhA (Mycobacterium tuberculosis, UniProt P9WGR1); test: biochemical
# purified M. tuberculosis InhA, sequence (P9WGR1 whole entry, looked up): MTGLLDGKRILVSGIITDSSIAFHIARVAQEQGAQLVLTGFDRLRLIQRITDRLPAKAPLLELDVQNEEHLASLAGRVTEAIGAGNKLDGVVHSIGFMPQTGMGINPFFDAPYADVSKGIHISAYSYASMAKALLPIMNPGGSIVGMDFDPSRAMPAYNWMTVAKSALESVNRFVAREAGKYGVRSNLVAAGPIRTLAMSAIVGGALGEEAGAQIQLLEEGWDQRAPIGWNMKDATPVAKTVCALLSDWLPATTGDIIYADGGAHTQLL
# M. tuberculosis H37Rv [4] = type: cell-based, Mycobacterium tuberculosis
# [5] = test system: M. tuberculosis fatty acid biosynthesis; type: cell-based, Mycobacterium tuberculosis
# [6] = test system: M. tuberculosis streptomycin-sensitive (ss18b) strain; type: cell-based, Mycobacterium tuberculosis; conditions: streptomycin-starved nonreplicating model; 7 days treatment
# M. tuberculosis H37Rv [7] = test: Griess assay for NO· quantification, H37Rv; type: cell-based, Mycobacterium tuberculosis; conditions: for NO· production (supernatant nitrite concentration), 20 µM compound / NO· production (supernatant nitrite concentration), 100 µM compound: 2 days
# M. tuberculosis fgd1::tn [8] = test: Griess assay for NO· quantification, fgd1::tn; type: cell-based, Mycobacterium tuberculosis; conditions: F420H2 cofactor deficiency; 20 or 100 µM
# M. tuberculosis H37Rv [9] = conditions: for time of treatment after which intrabacterial metabolite was detectable: H37Rv, 20 µM JSF-2164
# M. tuberculosis fgd1::tn [10] = conditions: 20 µM JSF-2164
# InhA = conditions: cited from earlier work
# [11] = read-out: % InhA inhibition at 50 µM with 1% CMC Tween-20, 50 µM compound, 1% CMC Tween-20
Compound,MIC [1] [µM],"MIC shift, fgd1::tn strain [1] [fold]",MIC [2] [µM],"inhibition at 50 µM [3, 11] [%]","NO· production (supernatant nitrite concentration), 20 µM compound (M. tuberculosis H37Rv [7]; 20 µM exposure) [µM]","NO· production (supernatant nitrite concentration), 100 µM compound (M. tuberculosis H37Rv [7]; 100 µM exposure) [µM]",NO· production in fgd1::tn strain (M. tuberculosis fgd1::tn [8]),time of treatment after which intrabacterial metabolite was detectable (M. tuberculosis H37Rv [9]) [min],time of treatment after which intrabacterial metabolite was discernible (M. tuberculosis fgd1::tn [10]) [h],also measured
"COc1cccc(Nc2ccc([N+](=O)[O-])c3nonc23)c1 [JSF-2164, N-(3-methoxyphenyl)-7-nitrobenzo[c][1,2,5]oxadiazol-4-amine]",> 200,> 20,8,44 ± 1,0.84,6.7,abolished,,,"CC50 (in vitro): 44 to 87 µM; IC50 versus purified InhA relative to MIC against the H37Rv strain ([3]; IC50 larger than MIC): ca. 5 fold; IC50 ([3]; InhA IC50 (µM), without Tween-20, mean ± standard error): 51 µM; IC50 ([3]; InhA IC50 with Tween-20, Tween-20 at 1% of its CMC in enzymatic buffer): 65 ± 16 µM; inhibition at 50 µM ([3]; read-out: InhA Inhibition at 50 µM Cmpd, 50 µM compound, commercial material, mean ± standard error): ≥ 50%; inhibition at 50 µM ([3]; read-out: InhA inhibition at 50 µM compound, synthetic material, 50 µM compound, […]): 44%; bactericidal classification (MBC within 4-fold of MIC) (M. tuberculosis H37Rv [4]): not formally bactericidal; reduction in M. tuberculosis colony-forming units/mL (M. tuberculosis H37Rv [4]; 16× MIC, over 7 days, H37Rv): ca. 1 log10; effect on MAMEs and FAMEs (TLC) [5]: did not exhibit a pattern similar to that for INH; in vitro efficacy versus ss18b strain [6]: exhibited in vitro efficacy; time at which intrabacterial compound was degraded to a negligible level (M. tuberculosis H37Rv [9]; Mycobacterium tuberculosis): ≥ 4 h"
"NNC(=O)c1ccncc1 [isoniazid, reference compound]",0.078,,0.078,,,,,,,
O=[N+]([O-])c1cn2c(n1)OC[C@@H](OCc1ccc(OC(F)(F)F)cc1)C2 [pretomanid],,> 500,,,9.8,17,abolished,,,"NO· release (ratio of nitrite concentration to compound dose), 20 µM compound (M. tuberculosis H37Rv [7]; 20 µM exposure, initial 2 days): 49%; NO· release (ratio of nitrite concentration to compound dose), 100 µM compound (M. tuberculosis H37Rv [7]; 100 µM exposure, initial 2 days): 17%"
"COc1cccc(Nc2ccc3nonc3c2N)c1 [JSF-3617, N5-(3-methoxyphenyl)benzo[c][1,2,5]oxadiazole-4,5-diamine]",125,,250,77 ± 0.74,,,,30,4,
CCCCCCc1ccc(Oc2ccccc2C)c(O)c1 [PT70],,,,,,,,,,Ki (InhA): 0.0078 µM; residence time (InhA): 24 min
"COc1cccc(Nc2ccc(N)c3nonc23)c1 [JSF-3616, N4-(3-methoxyphenyl)-benzo[c][1,2,5]oxadiazole-4,7-diamine]",32,,32,46 ± 2.9,,,,30,4,
